Values joined by “and” are separate entries in the source; they are usually repeats but may differ in a detail not shown here. Identical values can stand only once. Toxic doses and inconclusive results are not listed.
Test system: BDF1 mice, Lymphoma 8 ip, survival T/C
Assay: NCI In Vivo Anticancer Drug Screen. Data for tumor model Lymphoma 8 (intraperitoneal) in B6D2F1 (BDF1) mice
Conditions: higher = longer survival
Procedure: The antitumor activity of compounds was measured in mice bearing transplantable tumors. Survival or tumor size were measured and the results are expressed as the measurement made in the treated group (T) divided by the measurement made in the vehicle treated control group (C). The tumor model used in this assay is Lymphoma 8 (intraperitoneal) in B6D2F1 (BDF1) mice

[1] = endpoint: survival time, mean or median, dose: 62.5 mg/kg/injection, schedule: Q01DX010 (ip), vehicle: saline
[2] = endpoint: survival time, mean or median, dose: 125.0 mg/kg/injection, schedule: Q01DX010 (ip), vehicle: saline
[3] = endpoint: survival time, mean or median, dose: 8.0 mg/kg/injection, schedule: Q01DX010 (ip), vehicle: saline

Which T/C (endpoint: survival time, mean or median, dose: 62.5 mg/kg/injection, schedule: Q01DX015 (ip), vehicle: olive oil, sesame oil, peanut oil) does the source give for `CCOC=Nc1c(N)ncnc1Cl` here?
Its T/C is 107 % of control.

And the T/C (endpoint: survival time, mean or median, dose: 125.0 mg/kg/injection, schedule: Q01DX015 (ip), vehicle: olive oil, sesame oil, peanut oil)?
Its T/C is 93 % of control.

What about the T/C (endpoint: survival time, mean or median, dose: 250.0 mg/kg/injection, schedule: Q01DX015 (ip), vehicle: olive oil, sesame oil, peanut oil) of the same compound?
The T/C was 101 % of control.

What about the T/C (endpoint: survival time, mean or median, dose: 500.0 mg/kg/injection, schedule: Q01DX015 (ip), vehicle: olive oil, sesame oil, peanut oil) of the same compound?
The T/C was 101 % of control.

How did the T/C (endpoint: survival time, mean or median, dose: 10.0 mg/kg/injection, schedule: Q01DX015 (ip), vehicle: carboxymethylcellulose (CMC)) turn out when `COc1cc([C@@H]2c3cc4c(cc3[C@H](O)[C@H]3COC(=O)[C@@H]23)OCO4)cc(OC)c1OC` was run?
Its T/C is 98 % of control.

What about the T/C (endpoint: survival time, mean or median, dose: 20.0 mg/kg/injection, schedule: Q01DX015 (ip), vehicle: carboxymethylcellulose (CMC)) of the same compound?
Its T/C is 119 % of control.

With `COc1ccc(CSc2ncnc3nc[nH]c23)cc1` as the compound, how does the T/C (endpoint: survival time, mean or median, dose: 62.5 mg/kg/injection, schedule: Q01DX015 (ip), vehicle: carboxymethylcellulose (CMC)) read?
Its T/C is 95 % of control.

What about the T/C (endpoint: survival time, mean or median, dose: 125.0 mg/kg/injection, schedule: Q01DX015 (ip), vehicle: carboxymethylcellulose (CMC)) of the same compound?
The T/C was 92 % of control.

And the T/C (endpoint: survival time, mean or median, dose: 250.0 mg/kg/injection, schedule: Q01DX015 (ip), vehicle: carboxymethylcellulose (CMC))?
The T/C was 87 % of control.

Which results are given for `C1CN1c1nc(N2CC2)nc(N2CC2)n1`?
T/C (endpoint: survival time, mean or median, dose: 0.13 mg/kg/injection, schedule: Q01DX010 (ip), vehicle: saline): 91 % of control and 100 % of control; T/C (endpoint: survival time, mean or median, dose: 0.25 mg/kg/injection, schedule: Q01DX010 (ip), vehicle: saline): 100 % of control and 104 % of control; T/C (endpoint: survival time, mean or median, dose: 0.5 mg/kg/injection, schedule: Q01DX010 (ip), vehicle: saline): 166 % of control; T/C (endpoint: survival time, mean or median, dose: 1.0 mg/kg/injection, schedule: Q01DX010 (ip), vehicle: saline): 87 % of control

How did the T/C (endpoint: survival time, mean or median, dose: 9.4 mg/kg/injection, schedule: Q01DX010 (ip), vehicle: saline) turn out when `CS(=O)(=O)OCCCl` was run?
Its T/C is 107 % of control.

And the T/C (endpoint: survival time, mean or median, dose: 18.8 mg/kg/injection, schedule: Q01DX010 (ip), vehicle: saline)?
Its T/C is 91 % of control and 96 % of control.

And the T/C (endpoint: survival time, mean or median, dose: 37.5 mg/kg/injection, schedule: Q01DX010 (ip), vehicle: saline)?
Its T/C is 91 % of control and 100 % of control.

What about the T/C (endpoint: survival time, mean or median, dose: 75.0 mg/kg/injection, schedule: Q01DX010 (ip), vehicle: saline) of the same compound?
The T/C was 91 % of control and 96 % of control.

For `O=C(O)CCCc1ccc(N(CCCl)CCCl)cc1`, which T/C (endpoint: survival time, mean or median, dose: 3.13 mg/kg/injection, schedule: Q01DX010 (ip), vehicle: saline) is on record?
Its T/C is 100 % of control and 104 % of control.

What about the T/C (endpoint: survival time, mean or median, dose: 6.25 mg/kg/injection, schedule: Q01DX010 (ip), vehicle: saline) of the same compound?
The T/C was 104 % of control and 116 % of control.

And the T/C (endpoint: survival time, mean or median, dose: 12.5 mg/kg/injection, schedule: Q01DX010 (ip), vehicle: saline)?
The T/C was 104 % of control.

For `O=c1cn[nH]c(=O)[nH]1`, which T/C [1] is on record?
Its T/C is 95 % of control and 100 % of control and 109 % of control.

What about the T/C [2] of the same compound?
Its T/C is 91 % of control and 95 % of control and 110 % of control.

What about the T/C (endpoint: survival time, mean or median, dose: 250.0 mg/kg/injection, schedule: Q01DX010 (ip), vehicle: saline) of the same compound?
Its T/C is 90 % of control and 93 % of control and 115 % of control.

What about the T/C (endpoint: survival time, mean or median, dose: 500.0 mg/kg/injection, schedule: Q01DX010 (ip), vehicle: saline) of the same compound?
Its T/C is 100 % of control (2×) and 106 % of control.

What does the source list for `Nc1nc(=S)c2ncn(C3OC(CO)C(O)C3O)c2[nH]1` (configuration not stated)?
T/C (endpoint: survival time, mean or median, dose: 4.0 mg/kg/injection, schedule: Q01DX010 (ip), vehicle: saline): 92 % of control; T/C [3]: 89 % of control

`CCN(CC)CCNc1ccc(C)c2sc3ccccc3c(=O)c12` was tested. Which T/C (endpoint: survival time, mean or median, dose: 50.0 mg/kg/injection, schedule: Q01DX010 (ip), vehicle: saline) did it give?
Its T/C is 122 % of control.

And the T/C (endpoint: survival time, mean or median, dose: 100.0 mg/kg/injection, schedule: Q01DX010 (ip), vehicle: saline)?
The T/C was 109 % of control.

For `CCCCNc1ncnc2c1cnn2C`, which T/C (endpoint: survival time, mean or median, dose: 31.3 mg/kg/injection, schedule: Q01DX010 (ip), vehicle: saline) is on record?
Its T/C is 87 % of control and 95 % of control and 100 % of control.

And the T/C [1]?
Its T/C is 86 % of control and 97 % of control and 100 % of control.

What about the T/C [2] of the same compound?
The T/C was 90 % of control.

How did the T/C (endpoint: survival time, mean or median, dose: 25.0 mg/kg/injection, schedule: Q01DX015 (ip), vehicle: carboxymethylcellulose (CMC)) turn out when `CC(=O)OCC1OC(n2cnc3c(=S)nc[nH]c32)C(OC(C)=O)C1OC(C)=O` (configuration not stated) was run?
Its T/C is 101 % of control.

And the T/C (endpoint: survival time, mean or median, dose: 50.0 mg/kg/injection, schedule: Q01DX015 (ip), vehicle: carboxymethylcellulose (CMC))?
Its T/C is 109 % of control.

What about the T/C (endpoint: survival time, mean or median, dose: 100.0 mg/kg/injection, schedule: Q01DX015 (ip), vehicle: carboxymethylcellulose (CMC)) of the same compound?
The T/C was 104 % of control.

Which T/C (endpoint: survival time, mean or median, dose: 20.0 mg/kg/injection, schedule: Q01DX010 (ip), vehicle: saline) does the source give for `COc1cc(-c2ccc(Nc3ccccc3C(=O)O)c(OC)c2)ccc1N` here?
Its T/C is 92 % of control and 100 % of control.

What about the T/C (endpoint: survival time, mean or median, dose: 40.0 mg/kg/injection, schedule: Q01DX010 (ip), vehicle: saline) of the same compound?
Its T/C is 100 % of control.

And the T/C (endpoint: survival time, mean or median, dose: 80.0 mg/kg/injection, schedule: Q01DX010 (ip), vehicle: saline)?
The T/C was 92 % of control and 120 % of control.

What does the source list for `O=C(O)CC(NC(=O)CP(=O)(O)O)C(=O)O` (configuration not stated)?
T/C (endpoint: median survival time, dose: 62.2 mg/kg/injection, schedule: Q04DX003 (ip), vehicle: saline): 101 % of control; T/C (endpoint: median survival time, dose: 104.0 mg/kg/injection, schedule: Q04DX003 (ip), vehicle: saline): 114 % of control; T/C (endpoint: median survival time, dose: 173.0 mg/kg/injection, schedule: Q04DX003 (ip), vehicle: saline): 103 % of control; T/C (endpoint: median survival time, dose: 288.0 mg/kg/injection, schedule: Q04DX003 (ip), vehicle: saline): 108 % of control; T/C (endpoint: median survival time, dose: 480.0 mg/kg/injection, schedule: Q04DX003 (ip), vehicle: saline): 111 % of control

With `Nc1nc(SCc2ccccc2)c2[nH]cnc2n1` as the compound, how does the T/C [3] read?
The T/C was 91 % of control and 107 % of control.

What about the T/C (endpoint: survival time, mean or median, dose: 16.0 mg/kg/injection, schedule: Q01DX010 (ip), vehicle: saline) of the same compound?
Its T/C is 100 % of control and 103 % of control.

And the T/C (endpoint: survival time, mean or median, dose: 32.0 mg/kg/injection, schedule: Q01DX010 (ip), vehicle: saline)?
Its T/C is 100 % of control and 103 % of control.

And the T/C (endpoint: survival time, mean or median, dose: 64.0 mg/kg/injection, schedule: Q01DX010 (ip), vehicle: saline)?
The T/C was 91 % of control.

`Nc1nc(F)nc2c1ncn2C1OC(CO)C(O)C1O` (configuration not stated) was tested. Which T/C (endpoint: survival time, mean or median, dose: 0.75 mg/kg/injection, schedule: Q01DX015 (ip), vehicle: saline) did it give?
The T/C was 88 % of control.

Reference: PubChem BioAssay AID242 (DTP/NCI, 2004)
